Results reported in the NIST ThermoML archive (doi:10.1016/j.jct.2015.10.017).
Numbers after ± are expanded uncertainties.

Assay: mn = molality of the nth substance listed, in mol/kg
Conditions: 100 kPa, Liquid, Falling or rolling sphere viscometry

O=P([O-])([O-])O.[Na+].[Na+] [disodium hydrogen phosphate] + O
viscosity [mPa·s]
Conditions	288.15 K	293.15 K	298.15 K	303.15 K	308.15 K
m1 = 0.01669	1.056 ± 0.21	0.9429 ± 0.19	0.8421 ± 0.17	0.806 ± 0.16	0.7281 ± 0.15
m1 = 0.03487	1.069 ± 0.21	0.9556 ± 0.19	0.8532 ± 0.17	0.8146 ± 0.16	0.7367 ± 0.15
m1 = 0.05412	1.084 ± 0.22	0.969 ± 0.19	0.865 ± 0.17	0.8238 ± 0.16	0.7459 ± 0.15
m1 = 0.06194	1.089 ± 0.22	0.9745 ± 0.2	0.8698 ± 0.17	0.8275 ± 0.17	0.7496 ± 0.15
m1 = 0.08565	1.107 ± 0.22	0.9911 ± 0.2	0.8843 ± 0.18	0.8387 ± 0.17	0.7608 ± 0.15
m1 = 0.162	1.164 ± 0.23	1.044 ± 0.21	0.931 ± 0.19	0.8749 ± 0.18	0.797 ± 0.16
m1 = 0.255	1.234 ± 0.25	1.109 ± 0.22	0.9879 ± 0.2	0.9189 ± 0.18	0.841 ± 0.17
m1 = 0.3161	1.28 ± 0.26	1.152 ± 0.23	1.025 ± 0.21	0.9479 ± 0.19	0.87 ± 0.17
m1 = 0.4813	1.404 ± 0.28	1.268 ± 0.25	1.126 ± 0.23	1.026 ± 0.21	0.9483 ± 0.19
m1 = 0.6261	1.513 ± 0.3	1.369 ± 0.27	1.215 ± 0.24	1.095 ± 0.22	1.017 ± 0.2
m1 = 0.7501	1.606 ± 0.32	1.456 ± 0.29	1.291 ± 0.26	1.154 ± 0.23	1.076 ± 0.22
m1 = 0.8501	1.681 ± 0.34	1.525 ± 0.31	1.352 ± 0.27	1.201 ± 0.24	1.123 ± 0.23
m1 = 0.959	1.762 ± 0.35	1.602 ± 0.32	1.419 ± 0.28	1.253 ± 0.25	1.175 ± 0.24

O=P([O-])([O-])O.[K+].[K+] [dipotassium hydrogen phosphate] + O
viscosity [mPa·s]
Conditions	288.15 K	293.15 K	298.15 K	303.15 K	308.15 K
m1 = 0.01682	1.05 ± 0.21	0.9382 ± 0.19	0.8385 ± 0.17	0.804 ± 0.16	0.7261 ± 0.15
m1 = 0.03476	1.058 ± 0.21	0.9456 ± 0.19	0.8455 ± 0.17	0.8103 ± 0.16	0.7324 ± 0.15
m1 = 0.05442	1.066 ± 0.21	0.9538 ± 0.19	0.8532 ± 0.17	0.8173 ± 0.16	0.7394 ± 0.15
m1 = 0.06215	1.069 ± 0.21	0.957 ± 0.19	0.8562 ± 0.17	0.82 ± 0.16	0.7421 ± 0.15
m1 = 0.08596	1.079 ± 0.22	0.9669 ± 0.19	0.8655 ± 0.17	0.8284 ± 0.17	0.7505 ± 0.15
m1 = 0.1633	1.112 ± 0.22	0.9989 ± 0.2	0.8957 ± 0.18	0.8556 ± 0.17	0.7777 ± 0.16
m1 = 0.2499	1.149 ± 0.23	1.035 ± 0.21	0.9296 ± 0.19	0.8861 ± 0.18	0.8082 ± 0.16
m1 = 0.3088	1.174 ± 0.23	1.059 ± 0.21	0.9526 ± 0.19	0.9068 ± 0.18	0.8289 ± 0.17
m1 = 0.4795	1.246 ± 0.25	1.13 ± 0.23	1.019 ± 0.2	0.9669 ± 0.19	0.889 ± 0.18
m1 = 0.628	1.309 ± 0.26	1.192 ± 0.24	1.077 ± 0.22	1.019 ± 0.2	0.9412 ± 0.19
m1 = 0.7511	1.361 ± 0.27	1.243 ± 0.25	1.126 ± 0.23	1.062 ± 0.21	0.9846 ± 0.2
m1 = 0.8468	1.401 ± 0.28	1.283 ± 0.26	1.163 ± 0.23	1.096 ± 0.22	1.018 ± 0.2
m1 = 0.9565	1.448 ± 0.29	1.328 ± 0.27	1.206 ± 0.24	1.135 ± 0.23	1.057 ± 0.21
